Species on record: Rattus norvegicus
Test: Open TG-GATES - Regimen: Single
Type: toxicity, organism-based, Sprague-Dawley
Design: regimen Single, gender Male, age 6 weeks
Settings: in vivo, po, route gavage; for APTT / Bas / Eos / Fbg / Hb / Ht / Lym / MCH / MCHC / MCV / Mono / Neu / Plat / RBC / Ret / WBC: tissue Blood; for KIDNEY_L / KIDNEY_R / KIDNEY_TOTAL: tissue Kidney; for LIVER: tissue Liver; for ALP / ALT / AST / CRE / DBIL / GLC / IP / K / LDH / Na / PL / RALB / TBIL / TC / TG / TP / gamma-GTP: tissue Plasma
[1] = 0 mg/kg, 3 h, dose level Control
[2] = 0 mg/kg, 6 h, dose level Control
[3] = 0 mg/kg, 9 h, dose level Control
[4] = 0 mg/kg, 24 h, dose level Control

SMILES: CN(C)CCC=C1c2ccccc2COc2ccccc21 [DOXEPIN]
- TERMINAL_BW [1]: 197.6 g
- APTT [1]: 20.9 s
- Bas [1]: 0%
- Eos [1]: 0.8%
- Fbg [1]: 250.4 mg/dL
- Hb [1]: 13.6 g/dL
- Ht [1]: 41.4%
- Lym [1]: 77.4%
- MCH [1]: 21.2 pg
- MCHC [1]: 32.9%
- MCV [1]: 64.4 fL
- Mono [1]: 3.6%
- Neu [1]: 17.4%
- Plat [1]: 123.1 x10_4/uL
- RBC [1]: 644 x10_4/ul
- Ret [1]: 8.4%
- WBC [1]: 93.1 x10_2/uL
- KIDNEY_L [1]: 0.9 g
- KIDNEY_R [1]: 0.9 g
- KIDNEY_TOTAL [1]: 1.8 g
- LIVER [1]: 8.7 g
- ALP [1]: 1553 IU/L
- ALT [1]: 44 IU/L
- AST [1]: 77.8 IU/L
- CRE [1]: 0.2 mg/dL
- DBIL [1]: 0.006 mg/dL
- GLC [1]: 169.4 mg/dL
- IP [1]: 8.4 mg/dL
- K [1]: 4.2 meq/L
- LDH [1]: 84.6 IU/L
- Na [1]: 142.4 meq/L
- PL [1]: 140.8 mg/dL
- RALB [1]: 2.5 g/dL
- TBIL [1]: 0.056 mg/dL
- TC [1]: 74.8 mg/dL
- TG [1]: 58.2 mg/dL
- TP [1]: 5.3 g/dL
- gamma-GTP [1]: 1.2 IU/L
- TERMINAL_BW [2]: 196 g
- APTT [2]: 17.7 s
- Bas [2]: 0.2%
- Eos [2]: 0.8%
- Fbg [2]: 265.6 mg/dL
- Hb [2]: 13.6 g/dL
- Ht [2]: 41.4%
- Lym [2]: 79.2%
- MCH [2]: 21.8 pg
- MCHC [2]: 32.8%
- MCV [2]: 66.3 fL
- Mono [2]: 3%
- Neu [2]: 16.2%
- Plat [2]: 112.3 x10_4/uL
- RBC [2]: 624.8 x10_4/ul
- Ret [2]: 9.3%
- WBC [2]: 110.1 x10_2/uL
- KIDNEY_L [2]: 0.9 g
- KIDNEY_R [2]: 0.9 g
- KIDNEY_TOTAL [2]: 1.8 g
- LIVER [2]: 8.1 g
- ALP [2]: 1565.4 IU/L
- ALT [2]: 37.4 IU/L
- AST [2]: 77.2 IU/L
- CRE [2]: 0.2 mg/dL
- DBIL [2]: 0.004 mg/dL
- GLC [2]: 158.4 mg/dL
- IP [2]: 8.9 mg/dL
- K [2]: 4.1 meq/L
- LDH [2]: 80.2 IU/L
- Na [2]: 142.6 meq/L
- PL [2]: 143.6 mg/dL
- RALB [2]: 2.4 g/dL
- TBIL [2]: 0.06 mg/dL
- TC [2]: 76.4 mg/dL
- TG [2]: 49.2 mg/dL
- TP [2]: 5.3 g/dL
- gamma-GTP [2]: 1.2 IU/L
- TERMINAL_BW [3]: 195.7 g
- APTT [3]: 17.2 s
- Bas [3]: 0%
- Eos [3]: 1%
- Fbg [3]: 271.8 mg/dL
- Hb [3]: 13.2 g/dL
- Ht [3]: 39.9%
- Lym [3]: 77.8%
- MCH [3]: 21.5 pg
- MCHC [3]: 32.9%
- MCV [3]: 65.3 fL
- Mono [3]: 2.2%
- Neu [3]: 18.6%
- Plat [3]: 119.3 x10_4/uL
- RBC [3]: 612.4 x10_4/ul
- Ret [3]: 8.9%
- WBC [3]: 87 x10_2/uL
- KIDNEY_L [3]: 0.9 g
- KIDNEY_R [3]: 0.9 g
- KIDNEY_TOTAL [3]: 1.8 g
- LIVER [3]: 7.5 g
- ALP [3]: 1472.4 IU/L
- ALT [3]: 36.6 IU/L
- AST [3]: 71.2 IU/L
- CRE [3]: 0.2 mg/dL
- DBIL [3]: 0 mg/dL
- GLC [3]: 159.2 mg/dL
- IP [3]: 9.7 mg/dL
- K [3]: 3.9 meq/L
- LDH [3]: 95 IU/L
- Na [3]: 143 meq/L
- PL [3]: 125.8 mg/dL
- RALB [3]: 2.4 g/dL
- TBIL [3]: 0.058 mg/dL
- TC [3]: 70.6 mg/dL
- TG [3]: 33.6 mg/dL
- TP [3]: 5.3 g/dL
- gamma-GTP [3]: 1.2 IU/L
- TERMINAL_BW [4]: 214.2 g
- APTT [4]: 18.6 s
- Bas [4]: 0%
- Eos [4]: 1.2%
- Fbg [4]: 269 mg/dL
- Hb [4]: 13 g/dL
- Ht [4]: 38.8%
- Lym [4]: 76.4%
- MCH [4]: 21.7 pg
- MCHC [4]: 33.5%
- MCV [4]: 64.8 fL
- Mono [4]: 3%
- Neu [4]: 19%
- Plat [4]: 116.4 x10_4/uL
- RBC [4]: 600.2 x10_4/ul
- Ret [4]: 8.1%
- WBC [4]: 94.8 x10_2/uL
- KIDNEY_L [4]: 1 g
- KIDNEY_R [4]: 0.9 g
- KIDNEY_TOTAL [4]: 1.9 g
- ALP [4]: 2073 IU/L
- ALT [4]: 37.8 IU/L
- AST [4]: 75.6 IU/L
- CRE [4]: 0.2 mg/dL
- DBIL [4]: 0.004 mg/dL
- GLC [4]: 173.2 mg/dL
- IP [4]: 7.2 mg/dL
- K [4]: 4 meq/L
- LDH [4]: 106.6 IU/L
- Na [4]: 141.6 meq/L
- PL [4]: 153.8 mg/dL
- RALB [4]: 2.5 g/dL
- TBIL [4]: 0.04 mg/dL
- TC [4]: 80.2 mg/dL
- TG [4]: 89 mg/dL
- TP [4]: 5.6 g/dL
- gamma-GTP [4]: 1 IU/L
- TERMINAL_BW (100 mg/kg, 3 h, dose level Low): 198.2 g
- APTT (100 mg/kg, 3 h, dose level Low): 19.4 s
- Bas (100 mg/kg, 3 h, dose level Low): 0%
- Eos (100 mg/kg, 3 h, dose level Low): 1%
- Fbg (100 mg/kg, 3 h, dose level Low): 282.4 mg/dL
- Hb (100 mg/kg, 3 h, dose level Low): 13.1 g/dL
- Ht (100 mg/kg, 3 h, dose level Low): 39.8%
- Lym (100 mg/kg, 3 h, dose level Low): 79.6%
- MCH (100 mg/kg, 3 h, dose level Low): 21.2 pg
- MCHC (100 mg/kg, 3 h, dose level Low): 32.9%
- MCV (100 mg/kg, 3 h, dose level Low): 64.4 fL
- Mono (100 mg/kg, 3 h, dose level Low): 3%
- Neu (100 mg/kg, 3 h, dose level Low): 16%
- Plat (100 mg/kg, 3 h, dose level Low): 113.2 x10_4/uL
- RBC (100 mg/kg, 3 h, dose level Low): 619.4 x10_4/ul
- Ret (100 mg/kg, 3 h, dose level Low): 8.6%
- WBC (100 mg/kg, 3 h, dose level Low): 80.4 x10_2/uL
- KIDNEY_L (100 mg/kg, 3 h, dose level Low): 0.9 g
- KIDNEY_R (100 mg/kg, 3 h, dose level Low): 0.9 g
- KIDNEY_TOTAL (100 mg/kg, 3 h, dose level Low): 1.8 g
- LIVER (100 mg/kg, 3 h, dose level Low): 8.6 g
- ALP (100 mg/kg, 3 h, dose level Low): 1626.2 IU/L
- ALT (100 mg/kg, 3 h, dose level Low): 39.4 IU/L
- AST (100 mg/kg, 3 h, dose level Low): 69.2 IU/L
- CRE (100 mg/kg, 3 h, dose level Low): 0.2 mg/dL
- DBIL (100 mg/kg, 3 h, dose level Low): 0 mg/dL
- GLC (100 mg/kg, 3 h, dose level Low): 182 mg/dL
- IP (100 mg/kg, 3 h, dose level Low): 8.9 mg/dL
- K (100 mg/kg, 3 h, dose level Low): 4.1 meq/L
- LDH (100 mg/kg, 3 h, dose level Low): 82 IU/L
- Na (100 mg/kg, 3 h, dose level Low): 143.8 meq/L
- PL (100 mg/kg, 3 h, dose level Low): 159.6 mg/dL
- RALB (100 mg/kg, 3 h, dose level Low): 2.5 g/dL
- TBIL (100 mg/kg, 3 h, dose level Low): 0.046 mg/dL
- TC (100 mg/kg, 3 h, dose level Low): 83.8 mg/dL
- TG (100 mg/kg, 3 h, dose level Low): 57 mg/dL
- TP (100 mg/kg, 3 h, dose level Low): 5.4 g/dL
- gamma-GTP (100 mg/kg, 3 h, dose level Low): 1 IU/L
- TERMINAL_BW (100 mg/kg, 6 h, dose level Low): 197.6 g
- APTT (100 mg/kg, 6 h, dose level Low): 16.2 s
- Bas (100 mg/kg, 6 h, dose level Low): 0%
- Eos (100 mg/kg, 6 h, dose level Low): 1%
- Fbg (100 mg/kg, 6 h, dose level Low): 282.2 mg/dL
- Hb (100 mg/kg, 6 h, dose level Low): 13.1 g/dL
- Ht (100 mg/kg, 6 h, dose level Low): 40.1%
- Lym (100 mg/kg, 6 h, dose level Low): 75.8%
- MCH (100 mg/kg, 6 h, dose level Low): 21.7 pg
- MCHC (100 mg/kg, 6 h, dose level Low): 32.8%
- MCV (100 mg/kg, 6 h, dose level Low): 66.4 fL
- Mono (100 mg/kg, 6 h, dose level Low): 2.4%
- Neu (100 mg/kg, 6 h, dose level Low): 20.2%
- Plat (100 mg/kg, 6 h, dose level Low): 119.3 x10_4/uL
- RBC (100 mg/kg, 6 h, dose level Low): 603.6 x10_4/ul
- Ret (100 mg/kg, 6 h, dose level Low): 9.7%
- WBC (100 mg/kg, 6 h, dose level Low): 94.4 x10_2/uL
- KIDNEY_L (100 mg/kg, 6 h, dose level Low): 0.9 g
- KIDNEY_R (100 mg/kg, 6 h, dose level Low): 0.9 g
- KIDNEY_TOTAL (100 mg/kg, 6 h, dose level Low): 1.8 g
- LIVER (100 mg/kg, 6 h, dose level Low): 8.1 g
- ALP (100 mg/kg, 6 h, dose level Low): 1532.8 IU/L
- ALT (100 mg/kg, 6 h, dose level Low): 37.4 IU/L
- AST (100 mg/kg, 6 h, dose level Low): 71.4 IU/L
- CRE (100 mg/kg, 6 h, dose level Low): 0.2 mg/dL
- DBIL (100 mg/kg, 6 h, dose level Low): 0.004 mg/dL
- GLC (100 mg/kg, 6 h, dose level Low): 175.2 mg/dL
- IP (100 mg/kg, 6 h, dose level Low): 9.5 mg/dL
- K (100 mg/kg, 6 h, dose level Low): 4 meq/L
- LDH (100 mg/kg, 6 h, dose level Low): 71.6 IU/L
- Na (100 mg/kg, 6 h, dose level Low): 144.6 meq/L
- PL (100 mg/kg, 6 h, dose level Low): 140.6 mg/dL
- RALB (100 mg/kg, 6 h, dose level Low): 2.5 g/dL
- TBIL (100 mg/kg, 6 h, dose level Low): 0.054 mg/dL
- TC (100 mg/kg, 6 h, dose level Low): 79.4 mg/dL
- TG (100 mg/kg, 6 h, dose level Low): 27.2 mg/dL
- TP (100 mg/kg, 6 h, dose level Low): 5.3 g/dL
- gamma-GTP (100 mg/kg, 6 h, dose level Low): 1 IU/L

Source: ChEMBL document CHEMBL3885861, “Open TG-GATES”
